The values that follow come from patent US7700593B2, “Imidazo- and triazolo-pyridine compounds and methods of use thereof” (Amgen Inc., priority 2006, dated 2010).

The target of one assay is p38α (Homo sapiens, UniProt Q16539). Nature of the assay: p38 in-vitro HTRF enzyme assay. The class given is biochemical. The following applies: IC50 value ranges. The protocol:
p38 In-Vitro HTRF Enzyme Assay
The compounds of the invention can be tested for their respective affinities for the p38 protein using a conventional p38 in-vitro enzyme activity assay. For example, a P38-alpha HTRF assay may be used to measure the protein's in-vitro phosphorylation activity, and the data analyzed using time resolved fluorimetry techniques (FRET). A p38 HTRF assay is as follows. The kinase reaction buffer for p38α, p38β, p38δ and p38γ HTRF assays consists of 50 mM Tris-pH 7.5, 5 mM MgCl2, 0.1 mg/mL BSA, 100 μM Na3VO4 and 0.5 mM DTT. The HTRF detection buffer contains 100 mM HEPES-pH 7.5, 100 mM NaCl, 0.1% BSA, 0.05% Tween-20, and 10 mM EDTA. Each compound was dissolved in 100% DMSO and serially diluted (3 fold, 10 point) in a polypropylene 96-well microtiter plate (drug plate). The final starting concentration of the compound in the p38α and p38β enzymatic assays was about 1 μM. The final starting concentration of each compound in the p38δ and p38γ enzymatic assays was about 10 μM. The p38α, p38β, p38δ and p38γ kinase reactions were carried out in a polypropylene 96-well black round bottom assay plate in total volume of 30 μL kinase reaction buffer. Appropriate concentration of purified and activated enzyme (recombinant human) was mixed with indicated concentration of ATP and 100 nM GST-ATF2-Avitag, in the presence or absence (HI control) of each compound. In the absence of enzyme, the background was measured as LO control. HI controls and LO controls contained only DMSO. The reaction was allowed to incubate for 1 hour at RT. […] After 60 minutes incubation at room temperature, the assay plate was read in a Discovery Plate Reader. The wells were excited with coherent 320 nm light and the ratio of delayed ([…] post excitation) emissions at […] (native europium fluorescence) and 665 nm (europium fluorescence transferred to allophycocyanin—an index of substrate phosphorylation) was determined (Park et al, 1999). The resulting data was analyzed by taking the proportion of substrate phosphorylated in the kinase reaction in the presence of each individual compound and comparing it with that phosphorylated in the presence of DMSO vehicle alone (HI control). The data was calculated using the formula: % control (POC)=(compound−average LO)/(average HI−average LO)*100. Data (consisting of POC and inhibitor concentration in μM) was fitted to a 4-parameter equation (y=A+((B−A)/(1+((x/C)^D))), where A is the minimum y (POC) value, B is the maximum y (POC), C is the x (compound concentration) at the point of inflection and D is the slope factor, using a Levenburg-Marquardt non-linear regression algorithm. The inhibition constant (Ki) of the inhibitor was estimated from the IC50 (compound concentration at the point of inflection C) using the Cheng-Prussof equation: Ki=IC50/(1+S/Km), where S is the ATP substrate concentration, and Km is the Michaelis constant for ATP as determined experimentally. All results were expressed as the mean±the standard error of the mean. Data acquisition and non-linear regression algorithms were performed using Activity Base v5.2 and XLfit software v4.1 respectively. Additional assay information may be obtained in Park Y W, Cummings R T, Wu L, et al. Homogeneous Proximity Tyrosine Kinase Assays Scintillation Proximity Assay versus Homogeneous Time-Resolved Fluorescence. Analytical Biochemistry. 1999; 269: 94-104.

The next assay has as its system THP1 cells. Kind of assay: Lipopolysaccharide-activated THP1 cell TNF production assay. The class given is cell-based, human. The settings on record: Homo sapiens, THP-1; LPS-induced TNF-α production in THP1 cells. As to the method: Lipopolysaccharide-Activated THP1 Cell TNF Production Assay
THP1 cells are resuspended in fresh THP1 media (RPMI 1640, 10% heat-inactivated FBS, 1×PGS, 1×NEAA, plus 30 μM βME) at a concentration of 1E6/mL. One hundred microliters of cells per well are plated in a polystyrene 96-well tissue culture. One microgram per mL of bacterial LPS is prepared in THP1 media and is transferred to the wells. Test compounds are dissolved in 100% DMSO and are serially diluted 3-fold in a polypropylene 96-well microtiter plate (drug plate). HI control and LO control wells contain only DMSO. One microliter of test compound from the drug plate followed by 10 μL of LPS are transferred to the cell plate. The treated cells are induced to synthesize and secrete TNF-α at 37° C. for 3 h. Forty microliters of conditioned media are transferred to a 96-well polypropylene plate containing 110 μL of ECL buffer (50 mM Tris-HCl pH 8.0, 100 mM NaCl, 0.05% Tween 20, 0.05% NaN3 and 1% FBS) supplemented with 0.44 nM MAB610 monoclonal Ab (R&D Systems), 0.34 nM ruthenylated AF210NA polyclonal Ab (R&D Systems) and 44 μg/mL sheep anti-mouse M280 Dynabeads (Dynal). After a 2 h incubation at room temperature with shaking, the reaction is read on the ECL M8 Instrument (IGEN Inc.). A low voltage is applied to the ruthenylated TNF-α immune complexes, which in the presence of TPA (the active component in Origlo), results in a cyclical redox reaction generating light at […]. The amount of secreted TNF-α in the presence of compound compared with that in the presence of DMSO vehicle alone (HI control) is calculated using the formula: % control (POC)=(cpd−average LO)/(average HI−average LO)*100. Data (consisting of POC and inhibitor concentration in μM) is fitted to a 4-parameter equation (y=A+((B−A)/(1+((x/C)^D))), where A is the minimum y (POC) value, B is the maximum y (POC), C is the x (cpd concentration) at the point of inflection and D is the slope factor) using a Levenburg-Marquardt non-linear regression algorithm.

The subject of the next assay is monocytes. Nature of the assay: Lipopolysaccharide-activated monocyte TNF production assay (LPS induced TNF release). The class given is cell-based, human. The following applies: Homo sapiens, Monocyte; LPS induced TNF release from monocytes; read-out: LPS induced TNFa. As to the method:
Lipopolysaccharide-Activated Monocyte TNF Production Assay
Test compounds were evaluated in vitro for the ability to inhibit the production of TNF by monocytes activated with bacterial lipopolysaccharide (LPS). Fresh residual source leukocytes (a byproduct of plateletpheresis) were obtained from a local blood bank, and peripheral blood mononuclear cells (PBMCs) were isolated by density gradient centrifugation on Ficol-Paque Plus (Pharmacia). PBMCs were suspended at 2×10^6/mL in DMEM supplemented to contain 2% FCS, 10 mM, 0.3 mg/mL […], 100 U/mL penicillin G and […] streptomycin sulfate (complete media). Cells were plated into Falcon flat bottom, 96 well culture plates (200 μL/well) and cultured overnight at 37° C. and 6% CO2. Non-adherent cells were removed by washing with 200 μl/well of fresh medium. Wells containing adherent cells (˜70% monocytes) were replenished with 100 μL of fresh medium.
Preparation of Test Compound Stock Solutions
Test compounds were dissolved in […]. Compound stock solutions were prepared to an initial concentration of […]. Stocks were diluted initially to […] in complete media. Nine two-fold serial dilutions of each compound were then prepared in complete medium.
Treatment of Cells with Test Compounds and Activation of TNF Production with Lipopolysaccharide
One hundred microliters of each test compound dilution were added to microtiter wells containing adherent monocytes and 100 μL complete medium. Monocytes were cultured with test compounds for 60 min at which time 25 μL of complete medium containing 30 ng/mL lipopolysaccharide from E. coli K532 were added to each well. Cells were cultured an additional 4 hrs. Culture supernatants were then removed and TNF presence in the supernatants was quantified using an ELISA.
Flat bottom, 96 well Corning High Binding ELISA plates were coated overnight (4° C.) with 150 μL/well of 3 μg/mL murine anti-human TNF-α MAb (R&D Systems #MAB210). Wells were then blocked for 1 h at room temperature with 200 μL/well of CaCl2-free ELISA buffer supplemented to contain 20 mg/mL BSA (standard ELISA buffer: […], 150 mM NaCl, 2 mM CaCl2, 0.15 mM thimerosal, pH 7.4). Plates were washed and replenished with 100 μL of test supernatants (diluted 1:3) or standards. Standards consisted of eleven 1.5-fold serial dilutions from a stock of 1 ng/mL recombinant human TNF (R&D Systems). Plates were incubated at room temperature for 1 h on orbital shaker (300 rpm), washed and replenished with 100 μL/well of 0.5 μg/mL goat anti-human TNF-α (R&D systems #AB-210-NA) biotinylated at a 4:1 ratio. Plates were incubated for 40 min, washed and replenished with 100 μL/well of alkaline phosphatase-conjugated streptavidin (Jackson ImmunoResearch #016-050-084) at 0.02 μg/mL. Plates were incubated 30 min, washed and replenished with 200 μL/well of 1 mg/mL of p-nitrophenyl phosphate.
Standard curve data were fit to a second order polynomial and unknown TNF-α concentrations determined from their OD by solving this equation for concentration. TNF concentrations were then plotted vs. test compound concentration using a second order polynomial. This equation was then used to calculate the concentration of test compounds causing a 50% reduction in TNF production.

Molecules are shown by their SMILES.

Chain of p38α (Q16539 whole entry): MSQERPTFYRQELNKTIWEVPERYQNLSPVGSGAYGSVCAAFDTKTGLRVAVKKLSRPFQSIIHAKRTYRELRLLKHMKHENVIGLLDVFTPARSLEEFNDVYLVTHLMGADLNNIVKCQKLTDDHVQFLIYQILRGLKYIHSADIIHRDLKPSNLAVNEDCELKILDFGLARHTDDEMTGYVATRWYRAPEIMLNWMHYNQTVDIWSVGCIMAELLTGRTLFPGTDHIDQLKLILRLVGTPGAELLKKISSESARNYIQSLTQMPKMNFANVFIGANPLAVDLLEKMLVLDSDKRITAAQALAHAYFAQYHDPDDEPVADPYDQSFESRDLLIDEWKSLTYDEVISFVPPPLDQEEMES

`Cc1ccc(C(=O)NC2CC2)cc1-c1ccn2c(-c3c(C)cccc3F)nnc2c1` [Example 84, N-cyclopropyl-3-(3-(2-fluoro-6-methylphenyl)[1,2,4]triazolo[4,3-a]pyridin-7-yl)-4-methylbenzamide] had an IC50 against p38α of under 25 nM.

As for `Cc1ccc(C(=O)NC2CC2)cc1-c1ccn2c([C@@H](C)C(F)(F)F)nnc2c1` [Example 87, N-cyclopropyl-4-methyl-3-(3-((1R)-2,2,2-trifluoro-1-methylethyl)[1,2,4]triazolo[4,3-a]pyridin-7-yl)benzamide], the results for the IC50 in the assay on THP1 cells and in the assay on monocytes were 25 to 100 nM and 100 to 250 nM, respectively.

At p38α, `COc1ccccc1-c1nnc2cc(-c3cc(C(=O)NC4CC4)ccc3C)ccn12` [Example 85, N-cyclopropyl-4-methyl-3-(3-(2-(methyloxy)phenyl)[1,2,4]triazolo[4,3-a]pyridin-7-yl)benzamide] had an IC50 of under 25 nM.

With `Cc1cc(F)c(C(=O)NC2CC2)cc1-c1ccn2c(-c3c(F)cccc3Cl)nnc2c1` [Example 72, 5-(3-(2-chloro-6-fluorophenyl)[1,2,4]triazolo[4,3-a]pyridin-7-yl)-N-cyclopropyl-2-fluoro-4-methylbenzamide], the IC50 with THP1 cells and in the assay with monocytes was 25 to 100 nM throughout.

Take `Cc1cc(F)c(C(=O)Nc2ccnn2C)cc1-c1ccn2c(-c3ccccc3Cl)nnc2c1` [Example 71, 5-(3-(2-chlorophenyl)[1,2,4]triazolo[4,3-a]pyridin-7-yl)-2-fluoro-4-methyl-N-(1-methyl-1H-pyrazol-5-yl)benzamide]: the IC50 was 25 to 100 nM with THP1 cells and 100 to 250 nM with monocytes.

Regarding `Cc1cc(F)c(C(=O)NC2CC2)cc1-c1ccn2c(-c3sccc3C)nnc2c1` [Example 67, N-cyclopropyl-2-fluoro-4-methyl-5-(3-(3-methyl-2-thienyl)[1,2,4]triazolo[4,3-a]pyridin-7-yl)benzamide], the IC50 in the assay on THP1 cells lay in the range of 25 to 100 nM; with monocytes, 100 to 250 nM.

Consider `Cc1cc(F)c(C(=O)Nc2ccnn2C)cc1-c1ccn2c(-c3c(F)cccc3Cl)nnc2c1` [Example 73, 5-(3-(2-chloro-6-fluorophenyl)[1,2,4]triazolo[4,3-a]pyridin-7-yl)-2-fluoro-4-methyl-N-(1-methyl-1H-pyrazol-5-yl)benzamide], for which the IC50 in the assay on THP1 cells is under 25 nM; in the assay with monocytes, 25 to 100 nM.

As to `Cc1cc(F)c(C(=O)Nc2ccnn2C)cc1-c1ccn2c(-c3sccc3C)nnc2c1` [Example 68, 2-fluoro-4-methyl-N-(1-methyl-1H-pyrazol-5-yl)-5-(3-(3-methyl-2-thienyl)[1,2,4]triazolo[4,3-a]pyridin-7-yl)benzamide], the results for the IC50 with THP1 cells and with monocytes were under 25 nM and 100 to 250 nM, respectively.

In the case of `Cc1ccc(C(=O)NC2CC2)cc1-c1ccn2c(-c3c(F)cccc3F)nnc2c1` [Example 65, N-cyclopropyl-3-(3-(2,6-difluorophenyl)[1,2,4]triazolo[4,3-a]pyridin-7-yl)-4-methylbenzamide], the IC50 with THP1 cells and in the assay with monocytes was under 25 nM throughout.

Consider `Cc1c(F)cc(C(=O)NC2CC2)cc1-c1ccn2c(C(C)(C)C)nnc2c1C` [Example 76, N-cyclopropyl-3-(3-(1,1-dimethylethyl)-8-methyl[1,2,4]triazolo[4,3-a]pyridin-7-yl)-5-fluoro-4-methylbenzamide], for which the IC50 in the assay on THP1 cells lay within 25 to 100 nM; in the assay on monocytes it was 100 to 250 nM.

Regarding `Cc1ccc(C(=O)NC2CC2)cc1-c1ccn2c(N3CCNC3=O)nnc2c1` [Example 100, N-cyclopropyl-4-methyl-3-(3-(2-oxo-1-imidazolidinyl)[1,2,4]triazolo[4,3-a]pyridin-7-yl)benzamide], the IC50 in the assay on THP1 cells fell in the range of 250 to 1000 nM; in the assay with monocytes it was 1000 to 5000 nM.

In the case of `Cc1ccc(C(=O)NC2CC2)cc1-c1ccn2c(C(C)(C)C)nnc2c1C` [Example 77, N-cyclopropyl-3-(3-(1,1-dimethylethyl)-8-methyl[1,2,4]triazolo[4,3-a]pyridin-7-yl)-4-methylbenzamide], the IC50 in the assay with THP1 cells was in the range of 25 to 100 nM; with monocytes, 100 to 250 nM.
